# Earlier results in patent EP0640130B1, “CHIMERIC M[…] ANALOGUES AND METHODS OF USE THEREOF” (CREATIVE BIOMOLECULES, INC., priority 1992, dated 1993).
# Target: 26-10 sFv (anti-digoxin single-chain Fv)
structure (smiles),measurement,value
C[C@@H]1O[C@@H](O[C@H]2C[C@@H](O)[C@]3(CO)[C@H]4[C@H](O)C[C@]5(C)[C@@H](C6=CC(=O)OC6)CC[C@]5(O)[C@@H]4CC[C@]3(O)C2)[C@H](O)[C@H](O)[C@H]1O [Ouabain],Ka for association with 26-10 sFv,about 10^7 M^-1
